We go through 3 compounds from patent publication US8192989B2, “Solid surface for biomolecule delivery and high-throughput assay” (Nitto Denko Corporation, priority 2003, dated 2012).

Data set [1] deals with 293 cells. The experiment in a line: Cytotoxicity assay - MTT assay after transfection. The class given is cell-based. (Tetrazolium dyes change colour on reduction, which living cells bring about.)
Experimental: Glutamine (100 mmol/L) and different transfection reagents (NDT-CP-B-1, NDT-CP-1, Superfect and lipofectamine 2000) were diluted in 0.2% gelatin solution, and 25 μl of the solution containing Glutamine/transfection reagent/gelatin was added into a 96 well plate and allowed to air dry. Then 25 μl GFP plasmid solution in opti MEM (20.0 μg/ml) was added into each well and incubated at room temperature for 25 min. The dried plate was ready for use (FIG. 32).
In this experiment, 0.2% gelatin or 0.2% gelatin and 40.0 μg/ml laminin mixture was used for diluting transfection reagents NDT-CP-B-1, NDT-CP-1, NDT-LP-1 NDT-LP-2, Superfect and lipofectamine 2000, and 25 μl solution was added into 96 well plate. The amounts of NDT polymers used in each well were 8, 4 or 2 μg, respectively, the amounts of Superfect were 15, 7.5 and 3.8 μg/well respectively, and the amounts of lipofectamine 2000 were 2.5, 1.25 and 0.63 μg/well respectively. […] The transfection efficiency and cytotoxicity were analyzed by fluorescent microscope and MTT assay (FIG. 33).
The cytotoxicities of transfection reagents on mammalian cells were evaluated using 3-[4,5 dimethylthiazol-2-yl]-2,5-diphenyltetrazolium bromide (MTT) method. […] The absorbance of the solution was measured at 570 nm. Cell viabilities was calculated using the equation: Viability (%)={Abs570 (sample)/Abs570 (control)}×100 (FIG. 31).
For data set [2], the system named is 293 cells. The experiment in a line: Effect of membrane disturbing peptide on PLL-laminin mediated gene transfer. The following applies: membrane disturbing peptide in PLL-laminin based transfectable surface, 96-well (FIG. 28). The data set is classed as cell-based.

As for `NC(=O)CC[C@H](N)C(=O)O` [glutamine, Glutamine], the “effect on transfection cytotoxicity” value in data set [1] (cytoreductive reagent added to transfectable surface, with versus without glutamine (FIG. 32)) was “significantly improved transfection cytotoxicity”.

Turning to “RRRQGTWLNPGFPPQSCGYATVTDARRR (Chemically synthesized peptide corresponding to viral envelope protein VSVG) [VSVG peptide]”, the “effect on transfection efficiency” value in data set [2] is “significantly enhance transfection efficiency”.

As for laminin, the “effect on cytotoxicity caused by transfection reagents and procedures” value in data set [1] (cell attaching reagent in transfection reagents-gelatin surface, with versus without laminin (FIG. 33)) is “significantly improved cytotoxicity”.
